Values joined by “and” are separate entries in the source; they are usually repeats but may differ in a detail not shown here. Equal entries are not always repeated.
Experiments:
[1] = target: hOAT1 (Homo sapiens, UniProt Q4U2R8); assay: Vincristine uptake screen, HeLa cells overexpressing hOAT1; assay type: in vitro ADME
Protocol: (§1) Relative uptake is expressed as percentage change compared with empty vector controls (n = 4–14 per group). […] Human OATP1B1 and OATP1B3 transporter–overexpressed cells were used as positive controls; empty vector controls were used as the negative control. […] Mechanical allodynia (C), thermal hyperalgesia (D), and sciatic nerve maximal action potential amplitudes (E) are expressed as percentage change relative to baseline values (n = 6–8 per group). Statistical analysis was performed using a 2-way ANOVA with Bonferroni’s post hoc test. **P < 0.01, ***P < 0.001, ****P < 0.0001, compared with baseline values. […] Data are shown as mean ± SEM. […]
(§2) transfected with transporters of interest, including hOAT1, hOAT3, hOAT4, hOATP1A2, hOATP3A1, hOATP4A1, hOATP5A1, hOATP1C1, hOATP1B1, hOATP1B3, hOATP2B1, hOCT1, hOCT2, hOCTN1, hOCTN2, hASBT, hNTCP, hNPT1, hMATE1, hOSTα/β, hPEPT1, hPEPT2, rOatp1a1, rOatp1a4, rOatp1a5, rOatp1b2, rNtcp, rAsbt, rOat1, and rOct1. Cells were transfected with expression plasmid or vector control lacking any insert using Lipofectin reagent (Invitrogen). […] The cellular radioactivity was quantified by liquid scintillation counting as described above. […]
Samples were analyzed using real-time quantitative PCR and Taqman Probes (Applied Biosystems). The relative gene expression was determined using the ΔΔCt method, and normalized to the mouse or human housekeeping gene, GAPDH. […]

[2] = target: hOATP4A1 (Homo sapiens, UniProt Q96BD0); assay: Vincristine uptake screen, HeLa cells overexpressing hOATP4A1; assay type: in vitro ADME
Protocol: as §1
as §2, with “(Invitrogen). Sixteen hours thereafter, cells were washed with transport media (OPTIMEM, Invitrogen) and treated with radiolabeled drug.” for “(Invitrogen).”

[3] = target: rASBT (Rattus norvegicus, UniProt Q62633); assay: Vincristine uptake screen, HeLa cells overexpressing rASBT; assay type: in vitro ADME
Protocol: as §1
as §2, with “(Invitrogen). Sixteen hours thereafter, cells were washed with transport media (OPTIMEM, Invitrogen) and treated with radiolabeled drug.” for “(Invitrogen).”

[4] = target: rOCT1 (Rattus norvegicus, UniProt Q63089); assay: Vincristine uptake screen, HeLa cells overexpressing rOCT1; assay type: in vitro ADME
Protocol: as §1
as §2, with “(Invitrogen). Sixteen hours thereafter, cells were washed with transport media (OPTIMEM, Invitrogen) and treated with radiolabeled drug.” for “(Invitrogen).”

[5] = Plasma pharmacokinetics of vincristine in mice; settings: for concentration at 1 h / concentration at 4 h / concentration at 0.5 h / concentration at 0.25 h / AUC(0-t) / Cmax / concentration at 2 h: mouse, in vivo; for AUC(0-t) / Cmax: male; for AUC(0-t): AUC0-4h
Protocol: were collected at the final time point. […]
specimens were stored at -80°C until further processing. […]
stainless steel bead (Qiagen) and processed for 4 min at 40 Hz. Finally, the beads were removed, and the homogenized samples were stored at -80°C until analysis by LC-MS/MS.
Pharmacokinetic parameters were calculated by non -compartmental analysis using Phoenix WinNonlin version 8.0 (Certara). Peak plasma concentration (C max) was determined by visual inspection of the data from the concentration-time curves. The linear trapezoidal rule was used to obtain the area under the plasma concentration-time curve (AUC), and drug levels in tissues were corrected for […]
Determination of drug levels.
Quantiva triple quadrupole mass spectrometer from Thermo Fisher Scientific was used for LC-MS/MS […]
column was maintained at 50°C. […]
quantification was 5 ng/mL.
450 °C. […] Precursor molecular ions and […]
dose of 4 mg/kg. […] The sample
Morphologic and morphometric evaluation. […]
for light microscopy and morphometric analysis.

[6] = DBA/1LacJ, ip, 1 mg/kg, Plasma concentration of vincristine
[7] = ip, 1 mg/kg, Plasma concentration of vincristine

Sequence of hOATP4A1 (Q96BD0 whole entry): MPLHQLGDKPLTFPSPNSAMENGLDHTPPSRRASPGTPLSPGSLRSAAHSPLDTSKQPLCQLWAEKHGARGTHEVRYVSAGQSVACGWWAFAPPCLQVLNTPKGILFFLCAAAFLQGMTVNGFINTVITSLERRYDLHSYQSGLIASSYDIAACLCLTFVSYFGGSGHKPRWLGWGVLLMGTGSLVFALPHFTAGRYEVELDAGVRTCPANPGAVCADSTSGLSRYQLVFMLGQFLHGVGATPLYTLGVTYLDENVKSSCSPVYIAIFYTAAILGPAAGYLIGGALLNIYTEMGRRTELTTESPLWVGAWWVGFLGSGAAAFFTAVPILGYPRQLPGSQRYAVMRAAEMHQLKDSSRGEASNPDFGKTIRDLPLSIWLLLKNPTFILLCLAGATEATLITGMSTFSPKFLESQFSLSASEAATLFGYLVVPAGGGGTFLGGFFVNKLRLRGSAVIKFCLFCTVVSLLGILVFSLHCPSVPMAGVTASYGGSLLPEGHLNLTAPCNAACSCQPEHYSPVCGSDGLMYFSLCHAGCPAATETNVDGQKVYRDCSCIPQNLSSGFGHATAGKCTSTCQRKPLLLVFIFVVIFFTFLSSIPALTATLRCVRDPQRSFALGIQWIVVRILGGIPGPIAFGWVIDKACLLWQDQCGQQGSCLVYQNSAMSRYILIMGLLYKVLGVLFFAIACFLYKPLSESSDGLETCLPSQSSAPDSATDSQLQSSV
Sequence of hOAT1 (Q4U2R8 whole entry): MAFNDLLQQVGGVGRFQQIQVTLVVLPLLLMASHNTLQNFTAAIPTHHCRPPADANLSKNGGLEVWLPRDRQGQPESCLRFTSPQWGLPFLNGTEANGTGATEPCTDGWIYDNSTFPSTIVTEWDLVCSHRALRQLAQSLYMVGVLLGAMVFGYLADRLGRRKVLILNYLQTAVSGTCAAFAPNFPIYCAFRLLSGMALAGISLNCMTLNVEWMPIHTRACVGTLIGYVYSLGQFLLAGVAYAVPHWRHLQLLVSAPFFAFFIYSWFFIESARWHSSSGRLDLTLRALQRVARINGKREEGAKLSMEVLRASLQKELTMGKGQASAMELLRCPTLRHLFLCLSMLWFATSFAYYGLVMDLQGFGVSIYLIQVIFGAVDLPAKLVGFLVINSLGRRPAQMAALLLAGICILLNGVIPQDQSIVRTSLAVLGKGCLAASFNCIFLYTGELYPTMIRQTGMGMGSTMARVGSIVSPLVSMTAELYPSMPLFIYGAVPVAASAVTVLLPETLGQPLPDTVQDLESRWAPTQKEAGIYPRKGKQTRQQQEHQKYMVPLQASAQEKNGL
Sequence of rOCT1 (Q63089 whole entry): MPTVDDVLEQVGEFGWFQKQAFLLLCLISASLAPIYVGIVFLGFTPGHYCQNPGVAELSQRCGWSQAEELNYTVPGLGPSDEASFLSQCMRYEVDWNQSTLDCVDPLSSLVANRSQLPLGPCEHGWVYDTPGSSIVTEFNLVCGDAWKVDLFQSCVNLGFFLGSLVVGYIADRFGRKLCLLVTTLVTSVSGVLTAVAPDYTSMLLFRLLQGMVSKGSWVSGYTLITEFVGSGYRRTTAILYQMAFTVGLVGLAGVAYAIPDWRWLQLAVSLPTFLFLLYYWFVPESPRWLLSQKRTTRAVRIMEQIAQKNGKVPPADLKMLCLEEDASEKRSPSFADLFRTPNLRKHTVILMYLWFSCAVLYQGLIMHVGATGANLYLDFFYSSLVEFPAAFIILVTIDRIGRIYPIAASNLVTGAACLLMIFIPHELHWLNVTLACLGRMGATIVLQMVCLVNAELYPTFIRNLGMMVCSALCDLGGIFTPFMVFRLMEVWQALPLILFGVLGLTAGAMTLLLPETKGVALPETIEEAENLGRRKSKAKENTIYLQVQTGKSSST
Sequence of rASBT (Q62633 whole entry): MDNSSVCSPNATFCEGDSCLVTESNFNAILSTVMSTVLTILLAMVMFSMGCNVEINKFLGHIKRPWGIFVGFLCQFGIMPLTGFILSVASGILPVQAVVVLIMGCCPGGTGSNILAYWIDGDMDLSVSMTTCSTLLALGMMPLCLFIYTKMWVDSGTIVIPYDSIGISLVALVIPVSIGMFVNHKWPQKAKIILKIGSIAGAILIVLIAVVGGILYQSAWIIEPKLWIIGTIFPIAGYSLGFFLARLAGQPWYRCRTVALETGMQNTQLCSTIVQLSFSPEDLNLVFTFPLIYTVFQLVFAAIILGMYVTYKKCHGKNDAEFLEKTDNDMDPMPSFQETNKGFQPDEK

CC[C@]1(O)C[C@H]2CN(CCc3c([nH]c4ccccc34)[C@@](C(=O)OC)(c3cc4c(cc3OC)N(C=O)[C@H]3[C@@](O)(C(=O)OC)[C@H](OC(C)=O)[C@]5(CC)C=CCN6CC[C@]43[C@@H]65)C2)C1 [Vincristine, vincristine]
Vincristine uptake (% of vector control) [1]: 127.00 % of vector control and 112.00 % of vector control and 76.00 % of vector control and 98.00 % of vector control and 129.00 % of vector control and 120.00 % of vector control and 111.00 % of vector control and 117.00 % of vector control
Vincristine uptake (% of vector control) [2]: 134.00 % of vector control and 105.00 % of vector control and 130.00 % of vector control and 116.00 % of vector control and 108.00 % of vector control and 117.00 % of vector control and 144.00 % of vector control and 140.00 % of vector control
Vincristine uptake (% of vector control) [3]: 95.00 % of vector control and 78.00 % of vector control and 81.00 % of vector control and 90.00 % of vector control and 114.00 % of vector control and 85.00 % of vector control and 118.00 % of vector control
Vincristine uptake (% of vector control) [4]: 113.00 % of vector control and 108.00 % of vector control and 138.00 % of vector control and 121.00 % of vector control
concentration at 1 h ([5]; DBA/1LacJ, 1 mg/kg, Plasma concentration of vincristine, OATP1B2(-/-) + Vehicle, vincristine 1 mg/kg, 1 h): 0.0884 µg/mL
concentration at 4 h ([5]; DBA/1LacJ, 1 mg/kg, Plasma concentration of vincristine, OATP1B2(-/-) + Vehicle, vincristine 1 mg/kg, 4 h): 0.0655 µg/mL
concentration at 0.5 h ([5]; DBA/1LacJ, Plasma concentration of vincristine, OATP1B2(-/-) + Nilotinib (100 mg/kg pretreatment), vincristine 1 mg/kg, 0.5 h): 0.225 µg/mL
concentration at 1 h ([5]; DBA/1LacJ, Plasma concentration of vincristine, OATP1B2(-/-) + Nilotinib (100 mg/kg pretreatment), vincristine 1 mg/kg, 1 h): 0.108 µg/mL
concentration at 0.25 h [5, 6]: 0.707 µg/mL
concentration at 0.5 h [5, 6]: 0.599 µg/mL
concentration at 1 h [5, 6]: 0.315 µg/mL
concentration at 4 h [5, 6]: 0.0909 µg/mL
Plasma concentration of Vincristine ([5]; Wild-type mice, 2 h): 0.1041 µg/mL
AUC(0-t) ([5]; DBA/1LacJ, ip, 1 mg/kg): 1.29 ± 0.0498 µg·h/mL
Cmax ([5]; DBA/1LacJ, ip, 1 mg/kg): 1.13 ± 0.148 µg/mL
AUC(0-t) ([5]; ip, 1 mg/kg): 1.06 ± 0.0362 µg·h/mL
Cmax ([5]; ip, 1 mg/kg): 1.19 ± 0.113 µg/mL
concentration at 1 h ([5]; 1 mg/kg, Plasma concentration of Vincristine (ng/mL), OATP1A/1B(-/-) mice, 1 h): 0.195 µg/mL
concentration at 2 h ([5]; 1 mg/kg, Plasma concentration of Vincristine (ng/mL), OATP1A/1B(-/-) mice, 2 h): 0.0899 µg/mL
concentration at 2 h ([5]; 1 mg/kg, Plasma concentration of Vincristine (ng/mL), Wild-type mice, 2 h): 0.113 µg/mL
concentration at 1 h ([5]; 1 mg/kg, Plasma concentration of vincristine, Wild-type + Vehicle, vincristine 1 mg/kg, 1 h): 0.116 µg/mL
concentration at 0.5 h ([5]; Plasma concentration of vincristine, Wild-type + Nilotinib (100 mg/kg pretreatment), vincristine 1 mg/kg, 0.5 h): 0.124 µg/mL
concentration at 1 h ([5]; Plasma concentration of vincristine, Wild-type + Nilotinib (100 mg/kg pretreatment), vincristine 1 mg/kg, 1 h): 0.104 µg/mL
concentration at 0.25 h [5, 7]: 0.735 µg/mL
concentration at 0.5 h [5, 7]: 0.376 µg/mL
concentration at 1 h [5, 7]: 0.273 µg/mL
concentration at 4 h [5, 7]: 0.114 µg/mL
concentration at 4 h ([5]; ip, 1 mg/kg, Plasma concentration of vincristine, Wild-type mice, 1 mg/kg i.p., 4 h): 0.102 µg/mL
